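Interpolation was linear, between the two tested concentrations surrounding the appropriate level; five concentrations were tested over 48 hours in 96-well plates. The concentration for 50% growth inhibition is given as GI50.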 Activity calls are given as the source filed them. Cut-off read from the data, not from the text of the source: active = GI50 up to about 1.1 µM and inactive = higher.
Legend:
Experiment in all cases: NCI anticancer screen, dose series, 48 h
OVCAR-4 = tested on: OVCAR-4
UO-31 = tested on: UO-31
OVCAR-5 = tested on: OVCAR-5
HCT-15 = tested on: HCT-15
HOP-92 = tested on: HOP-92
SF-295 = tested on: SF-295
CAKI-1 = tested on: CAKI-1
HCT-116 = tested on: HCT-116
MOLT-4 = tested on: MOLT-4
SK-MEL-28 = tested on: SK-MEL-28
OVCAR-3 = tested on: OVCAR-3
K562 = tested on: K562
CCRF-CEM = tested on: CCRF-CEM
M14 = tested on: M14
A549 = tested on: A549
UACC-62 = tested on: UACC-62
IGROV-1 = tested on: IGROV-1
HT-29 = tested on: HT-29
NCI-H226 = tested on: NCI-H226
EKVX = tested on: EKVX

Measured: GI50

CCOC(=O)C1=CN/C(=C(/C)C(=O)OC)SC1C(=O)OCC (stereo not given)
> 100 µM: HCT-15
inactive: OVCAR-4 > 100 µM | UO-31 > 78.5 µM | OVCAR-5 > 100 µM | HOP-92 > 76.9 µM | SF-295 > 100 µM | CAKI-1 > 100 µM | HCT-116 > 100 µM | MOLT-4 25.6 µM | SK-MEL-28 > 100 µM | OVCAR-3 > 100 µM | K562 17.5 µM | CCRF-CEM > 61 µM | M14 > 100 µM | A549 > 100 µM | UACC-62 > 100 µM | IGROV-1 > 100 µM | HT-29 > 100 µM | NCI-H226 > 100 µM | EKVX > 100 µM

COC(=O)C(CC(=O)c1ccccc1)c1ccccc1NC(C)=O (stereo not given)
> 100 µM: HCT-15
inactive: OVCAR-4 > 100 µM | UO-31 29.9 µM | OVCAR-5 > 100 µM | HOP-92 > 100 µM | SF-295 > 100 µM | CAKI-1 > 100 µM | HCT-116 > 100 µM | MOLT-4 > 100 µM | SK-MEL-28 > 100 µM | OVCAR-3 > 100 µM | K562 > 100 µM | CCRF-CEM > 100 µM | M14 > 100 µM | A549 > 100 µM | UACC-62 > 100 µM | IGROV-1 > 100 µM | HT-29 > 100 µM | NCI-H226 > 100 µM | EKVX > 100 µM

Cc1cccc(NC(=O)O/N=C(\Cl)C(C)C)c1
2.25 µM: HCT-15
inactive: OVCAR-4 14 µM | UO-31 16.6 µM | OVCAR-5 19.4 µM | HOP-92 1.66 µM | SF-295 17.5 µM | CAKI-1 1.74 µM | HCT-116 3.37 µM | MOLT-4 2.15 µM | SK-MEL-28 7.19 µM | OVCAR-3 6.15 µM | K562 2.31 µM | M14 4.58 µM | A549 20.5 µM | UACC-62 15.9 µM | IGROV-1 17.5 µM | HT-29 10.4 µM | NCI-H226 18.6 µM | EKVX 6.03 µM
active: CCRF-CEM 0.847 µM

COC(C)(C)CCc1[nH]c2ccccc2c1CC(=O)NCCc1cncn1C
inactive: OVCAR-4 > 100 µM | UO-31 > 100 µM | OVCAR-5 > 100 µM | HOP-92 > 100 µM | CAKI-1 > 100 µM | HCT-116 > 100 µM | MOLT-4 > 100 µM | SK-MEL-28 > 100 µM | OVCAR-3 > 100 µM | K562 > 100 µM | CCRF-CEM > 100 µM | M14 > 100 µM | A549 > 100 µM | UACC-62 > 100 µM | IGROV-1 > 100 µM | HT-29 > 100 µM | NCI-H226 > 100 µM | EKVX > 100 µM
> 100 µM: HCT-15

O=C1O/C(=C\c2ccccc2)N(c2ccccc2)C1=O
inactive: OVCAR-4 > 100 µM | UO-31 > 100 µM | OVCAR-5 > 100 µM | HOP-92 > 100 µM | CAKI-1 > 100 µM | HCT-116 > 100 µM | MOLT-4 > 100 µM | SK-MEL-28 > 100 µM | OVCAR-3 > 100 µM | K562 > 100 µM | CCRF-CEM > 100 µM | M14 > 100 µM | A549 > 100 µM | UACC-62 > 100 µM | IGROV-1 > 100 µM | HT-29 > 100 µM | NCI-H226 > 100 µM | EKVX > 100 µM
> 100 µM: HCT-15

COc1ccc(C#CC(=O)O)c(OC)c1
inactive: OVCAR-4 > 100 µM | UO-31 > 100 µM | OVCAR-5 > 100 µM | HOP-92 > 100 µM | SF-295 > 100 µM | CAKI-1 > 100 µM | HCT-116 > 100 µM | MOLT-4 > 100 µM | SK-MEL-28 > 100 µM | OVCAR-3 > 100 µM | K562 > 100 µM | CCRF-CEM > 100 µM | M14 > 100 µM | A549 > 100 µM | UACC-62 > 100 µM | HT-29 > 100 µM | NCI-H226 > 100 µM | EKVX > 100 µM
> 100 µM: HCT-15

N#CC(C(=O)CCC(=O)Nc1ccc(Cl)cc1)c1ccccc1Cl (stereo not given)
21 µM: HCT-15
inactive: OVCAR-4 > 100 µM | UO-31 > 100 µM | OVCAR-5 50.5 µM | HOP-92 > 100 µM | SF-295 > 100 µM | CAKI-1 89.3 µM | HCT-116 61.1 µM | MOLT-4 > 100 µM | SK-MEL-28 > 100 µM | OVCAR-3 > 100 µM | K562 18.4 µM | CCRF-CEM > 100 µM | M14 47.8 µM | A549 > 100 µM | UACC-62 16 µM | IGROV-1 > 100 µM | NCI-H226 > 100 µM | EKVX > 100 µM

CN(C)c1ccc(C2ON=C(c3ccccc3)N2C23CC4CC(CC(C4)C2)C3)cc1 (stereo not given)
inactive: OVCAR-4 > 10 µM | OVCAR-5 > 10 µM | HOP-92 > 10 µM | SF-295 > 10 µM | CAKI-1 > 10 µM | HCT-116 > 10 µM | MOLT-4 5.87 µM | SK-MEL-28 > 10 µM | OVCAR-3 > 10 µM | K562 9.12 µM | CCRF-CEM > 10 µM | M14 > 10 µM | A549 > 10 µM | UACC-62 > 10 µM | IGROV-1 > 10 µM | HT-29 > 10 µM | NCI-H226 > 10 µM | EKVX > 10 µM
> 10 µM: HCT-15
